From the supplement of paper PMC11562712 come the findings set out here.

This data set in a line: first-order primary biodegradation rate constant k (sorption-corrected, fDis-corrected) (d-1); higher = faster biodegradation. A digest of the protocol: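 River water with sieved sediment (50 g wet solid L^–1) from German, Swiss, Spanish and Greek river segments was spiked with 129 compounds at 1 μg L^–1 each. It was shaken in the dark at river water temperature (20.5 ± 3.5 °C) for 10 days. Filtered water-phase subsamples were analysed by UHPLC-Orbitrap-MS/MS. First-order k came from log peak-area regression over three replicates, corrected for azide-sterilised sorption-control dissipation and divided by dissolved fraction; invalid fits excluded.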

The mark [1] stands for this setting: river segment: Greece (EL) A_Contam, incubation temperature 19 °C.
The mark [2] stands for this setting: river segment: Greece (EL) G_Contam, incubation temperature 19 °C.
[3] abbreviates: river segment: Greece (EL) L_Contam, incubation temperature 19 °C.
[4] abbreviates: river segment: Spain (ES) B_Contam, incubation temperature 24 °C.
The mark [5] stands for this setting: river segment: Spain (ES) C_Contam, incubation temperature 24 °C.
Setting [6] is: river segment: Spain (ES) L_Contam, incubation temperature 24 °C.
The mark [7] stands for this setting: river segment: Switzerland (CH) U_Contam, incubation temperature 17 °C.
Where [8] appears, read: river segment: Germany (DE) H_Contam, incubation temperature 24 °C.
The mark [9] stands for this setting: river segment: Germany (DE) T_Contam, incubation temperature 24 °C.
The mark [10] stands for this setting: river segment: Germany (DE) T_Pris, incubation temperature 24 °C.
[11] abbreviates: river segment: Greece (EL) G_Pris, incubation temperature 19 °C.
Setting [12] is: river segment: Spain (ES) F_Pris_Salt, incubation temperature 24 °C.
Setting [13] is: river segment: Switzerland (CH) R_Contam, incubation temperature 17 °C.
Setting [14] is: river segment: Switzerland (CH) U_Pris, incubation temperature 17 °C.
Setting [15] is: river segment: Switzerland (CH) C_Contam, incubation temperature 17 °C.

For `CCOC(=O)c1ccc(O)cc1` [Ethylparaben], the “first-order primary biodegradation rate constant k” value amounted to 0.0419 under setting [1]; 0.114 under setting [2]; 0.108 under setting [3]; 0.466 under setting [4]; 2.12 under setting [5]; 0.364 under setting [6]. In addition, the “first-order primary biodegradation rate constant k” value under setting [7] is 0.0177.

As for `CC1(C(=O)Nc2ccc(O)c(Cl)c2Cl)CCCCC1` [Fenhexamid], the “first-order primary biodegradation rate constant k” value under setting [8] came out at 0.151; the “first-order primary biodegradation rate constant k” value under setting [9] was determined as 0.656; the “first-order primary biodegradation rate constant k” value under setting [10] came to 0.165; the “first-order primary biodegradation rate constant k” value under setting [1] worked out at 0.189; the “first-order primary biodegradation rate constant k” value under setting [11] is 0.641; the “first-order primary biodegradation rate constant k” value under setting [3] turned out to be 0.493. The “first-order primary biodegradation rate constant k” value reads like this: under setting [5], 0.109; under setting [12], 0.0571; under setting [6], 0.189; under setting [13], 0.0432; under setting [14], 0.988.

In the case of `O=C(NCC1CCCCN1)c1cc(OCC(F)(F)F)ccc1OCC(F)(F)F` (stereo not drawn) [Flecainide], the “first-order primary biodegradation rate constant k” value came to 0.116 under setting [9]; 0.0199 under setting [10]; 0.228 under setting [1]; 0.0658 under setting [2]; 0.0674 under setting [3]; 1.31 under setting [5]. For the same molecule, the “first-order primary biodegradation rate constant k” value under setting [6] was found to be 0.0814.

For the molecule `OC(Cn1cncn1)(Cn1cncn1)c1ccc(F)cc1F` [Fluconazole], the “first-order primary biodegradation rate constant k” value under setting [8] worked out at 0.024; the “first-order primary biodegradation rate constant k” value under setting [9] was 0.00573; the “first-order primary biodegradation rate constant k” value under setting [2] came out at 0.311; the “first-order primary biodegradation rate constant k” value under setting [3] turned out to be 0.0588; the “first-order primary biodegradation rate constant k” value under setting [7] was 0.00361.

On to `CC(C)N(C(=O)COc1nnc(C(F)(F)F)s1)c1ccc(F)cc1` [Flufenacet], for which the “first-order primary biodegradation rate constant k” value under setting [8] is 0.0427; the “first-order primary biodegradation rate constant k” value under setting [9] is 0.151; the “first-order primary biodegradation rate constant k” value under setting [1] came out at 0.0323; the “first-order primary biodegradation rate constant k” value under setting [11] amounted to 0.0751; the “first-order primary biodegradation rate constant k” value under setting [4] was determined as 0.0399; the “first-order primary biodegradation rate constant k” value under setting [5] is 0.0442. For the same molecule, the “first-order primary biodegradation rate constant k” value is, setting by setting: under setting [6], 0.0865; under setting [7], 0.0707; under setting [14], 0.105.

Consider `CNCCC(Oc1ccc(C(F)(F)F)cc1)c1ccccc1` (stereo not drawn) [Fluoxetine], for which the “first-order primary biodegradation rate constant k” value under setting [8] was found to be 0.797; the “first-order primary biodegradation rate constant k” value under setting [10] worked out at 3.25; the “first-order primary biodegradation rate constant k” value under setting [15] stood at 0.0571; the “first-order primary biodegradation rate constant k” value under setting [7] is 4.2; the “first-order primary biodegradation rate constant k” value under setting [14] was 2.14.

For `NS(=O)(=O)c1cc(C(=O)O)c(NCc2ccco2)cc1Cl` [Furosemide], the “first-order primary biodegradation rate constant k” value was 0.0829 under setting [8]; 0.171 under setting [9]; 0.0275 under setting [10]; 0.168 under setting [1]; 0.0968 under setting [11]; 0.114 under setting [3]. The “first-order primary biodegradation rate constant k” value under setting [4] stood at 0.359; the “first-order primary biodegradation rate constant k” value under setting [5] came out at 0.149; the “first-order primary biodegradation rate constant k” value under setting [12] is 0.0149; the “first-order primary biodegradation rate constant k” value under setting [6] is 0.229; the “first-order primary biodegradation rate constant k” value under setting [15] was 0.0405; the “first-order primary biodegradation rate constant k” value under setting [13] is 0.336. The “first-order primary biodegradation rate constant k” value under setting [7] was 0.155 and the “first-order primary biodegradation rate constant k” value under setting [14] was 0.0826.
